{"source": "patent US8158605B2", "about": "“Azacytidine analogues and uses thereof” (Mount Sinai School of Medicine, priority 2007, dated 2012)", "key": {"5637": {"tested_on": "5637", "assay": "WST-1 cytotoxicity assay", "type": "cell-based", "description": "(§1) Human promyelocytic leukemia cell lines HL60, human histiocytic lymphoma U937, human chronic myelogenous leukemia K562, human acute T cell Jurkat, breast adenocarcinoma MCF-7, urinary bladder carcinoma 5637, prostate carcinoma DU-145 were purchased from American Type Culture Collection. All cell lines except Jurkat were maintained in RPMI 1640 medium (Gibco, Glasgow, UK) supplemented with 10% heat-inactivated fetal calf serum (FCS), 100 U/ml of penicillin, and […] streptomycin, in an atmosphere of 5% CO2 at 37° C. Jurkat cells were cultured in RPMI 1640 medium supplemented with 1.5 g/L sodium bicarbonate, 4.5 g/L glucose, 10 mM sodium pyruvate, and 10% FCS, 100 U/ml of penicillin, and […] streptomycin.\n(§2) MCF-7, DU-145, and 5637 cells (1×10^4/ml) were plated and allowed to adhere and spread for 24 hours. […] Cultures were incubated with WST-1 reagent for 1 hour. The production of formazan was measured by a microplate reader (Bio-Tek Instruments, Elx 800) at 450 nm with a reference wavelength of 650 nm. Growth inhibition was determined as compared to untreated cells (%). IC50 values were calculated using CalcuSyn software (Biosoft)."}, "DU145": {"tested_on": "DU145", "assay": "WST-1 cytotoxicity assay", "type": "cell-based", "details": "Homo sapiens, DU-145", "description": "as §1, §2"}, "HL60": {"tested_on": "HL60", "assay": "WST-1 cytotoxicity assay", "type": "cell-based", "details": "Homo sapiens, HL-60", "description": "as §1, §2"}, "Jurkat": {"tested_on": "Jurkat", "assay": "WST-1 cytotoxicity assay", "type": "cell-based", "details": "Homo sapiens", "description": "as §1, §2"}, "K562": {"tested_on": "K562", "assay": "WST-1 cytotoxicity assay", "type": "cell-based", "details": "Homo sapiens", "description": "as §1, §2"}, "MCF-7": {"tested_on": "MCF-7", "assay": "WST-1 cytotoxicity assay", "type": "cell-based", "details": "Homo sapiens, MCF7", "description": "as §1, §2"}, "U937": {"tested_on": "U937", "assay": "WST-1 cytotoxicity assay", "type": "cell-based", "details": "Homo sapiens, U-937", "description": "as §1, §2"}, "[1]": {"tested_on": "U937, HL60 and K562 cells", "assay": "Differentiating induction (NBT reduction, benzidine staining)", "type": "cell-based, human", "details": "repeated exposure for 11 (HL60) or 14 (U937, K562) days", "description": "Cell differentiation was studied in terms of morphology. […] After initial treatment on day 0, cells were exposed to the new portions of drugs on day 4, 7, and 10. The differentiation was evaluated by NBT reduction assay (U937 and HL60) or by benzidine staining (K562)."}, "[2]": {"tested_on": "MT-3/ADR resistant breast carcinoma", "assay": "MTT cytotoxicity", "type": "cell-based", "details": "MDR1, MT-3/ADR resistant breast carcinoma (overexpress MDR-1/p-glycoprotein), 24 hours", "description": "(§3) The cytotoxicity of Aza-C and 5-Aza-C-5′-elaidic acid was determined in a breast cancer cell line MT-3 and the adriablastin resistant cell line MT-3/ADR. The MT-3/ADR overexpress the MDR-1/p-glycoprotein. […] The cells were incubated for 24 hours. […] Six wells were used per test concentration. The cells were incubated with test compound for 24 hours. […] Similar activity was obtained for Aza-C and 5-Aza-C-5′-elaidic acid in the MT-3 breast carcinoma cell line, but in the MT-3/ADR resistant cell line the activity of Aza-C was lost. […] This may be of importance in the treatment of resistant cancer."}, "[3]": {"tested_on": "breast carcinoma cell line MT-3", "assay": "MTT cytotoxicity", "type": "cell-based", "details": "MT-3 breast carcinoma, 24 hours", "description": "as §3"}, "[4]": {"tested_on": "Hela cervix carcinoma cells", "assay": "MTT cytotoxicity with or without nucleoside transport inhibitor dipyridamole", "type": "cell-based", "details": "for IC50: Homo sapiens, HeLa, 72 h, MTT", "description": "Dipyridamole was used as an inhibitor of the equilibrative nucleoside transporters hENT1 and hENT2. […] The cells were pre-incubated for 24 hours. Dipyridamole (10 μM) was added to the cells 30 minutes prior to the addition of the test compounds. […] Six wells were used per test concentration. The cells were incubated with test compound for 72 hours."}, "NFκB": {"tested_on": "NFκB", "assay": "LPS stimulated NFκB luciferase reporter activity in U937 cells", "type": "cell-based, human", "details": "10 nM, LPS 1 μg/ml, 1, 3 or 6 hours, compared to DMSO treated control", "description": "NFκB-luciferase reporter genes were used to determine the influence of Aza-C and 5-Aza-C-5′-elaidic acid on NFκB-induced luciferase activity in a human monocytic cell line U937, stably transfected with a luciferase reporter containing three NFκB-binding sites. The induction of NFκB was performed using lipopolysaccharide (LPS) at 1 μg/ml for 30 minutes prior to the addition of Aza-C or 5-Aza-C-5′-elaidic acid in the concentrations 10 nM to the medium. The cells were cultured in RPMI-1640 medium including 10% fetal bovine serum. Before stimulation with LPS the cells were transferred to medium containing only 2% fetal bovine serum. Luciferase activity was measured by imaging in an IVIS imaging System 100 (Xenogen Corp., USA) after 1, 3 or 6 hours. The LPS stimulation increased with time over the 6 hours followed in the DMSO treated control cells. […] Generally, a positive stimulation of NFκB as observed for azacytidine is not positive, and it is positive that the LPS stimulation is not further increased by 5′Aza-C-5′-elaidic acid."}, "[5]": {"details": "clinical plasma samples; cited from earlier work"}}}
{"smiles": "Nc1ncn([C@@H]2O[C@H](CO)[C@@H](O)[C@H]2O)c(=O)n1", "note": "[5-AzaC, 5-azacytidine, reference compound]", "values": [{"measurement": "IC50", "setting": "5637; 5637, 24 hour treatment", "result": 24.6, "unit": "µM"}, {"measurement": "IC50", "setting": "5637; 5637, 48 hour treatment", "result": 6.72, "unit": "µM"}, {"measurement": "IC50", "setting": "5637; 5637, 72 hour treatment", "result": 5.21, "unit": "µM"}, {"measurement": "IC50", "setting": "DU145; DU145, 24 hour treatment", "result": 20.9, "unit": "µM"}, {"measurement": "IC50", "setting": "DU145; DU145, 48 hour treatment", "result": 7.11, "unit": "µM"}, {"measurement": "IC50", "setting": "DU145; DU145, 72 hour treatment", "result": 7.2, "unit": "µM"}, {"measurement": "IC50", "setting": "HL60; HL60, 24 hour treatment", "result": 7.28, "unit": "µM"}, {"measurement": "IC50", "setting": "HL60; HL60, 48 hour treatment", "result": 4.92, "unit": "µM"}, {"measurement": "IC50", "setting": "HL60; HL60, 72 hour treatment", "result": 4.71, "unit": "µM"}, {"measurement": "IC50", "setting": "Jurkat; 24 hour treatment", "result": 9.5, "unit": "µM"}, {"measurement": "IC50", "setting": "Jurkat; 48 hour treatment", "result": 5.32, "unit": "µM"}, {"measurement": "IC50", "setting": "Jurkat; 72 hour treatment", "result": 4.77, "unit": "µM"}, {"measurement": "IC50", "setting": "K562; K562, 24 hour treatment", "result": 8.27, "unit": "µM"}, {"measurement": "IC50", "setting": "K562; K562, 48 hour treatment", "result": 15.5, "unit": "µM"}, {"measurement": "IC50", "setting": "K562; K562, 72 hour treatment", "result": 5.83, "unit": "µM"}, {"measurement": "IC50", "setting": "MCF-7; MCF-7, 24 hour treatment", "result": "> 160", "unit": "µM"}, {"measurement": "IC50", "setting": "MCF-7; MCF-7, 48 hour treatment", "result": 93.7, "unit": "µM"}, {"measurement": "IC50", "setting": "MCF-7; MCF-7, 72 hour treatment", "result": 53, "unit": "µM"}, {"measurement": "IC50", "setting": "U937; U937, 24 hour treatment", "result": 1.63, "unit": "µM"}, {"measurement": "IC50", "setting": "U937; U937, 48 hour treatment", "result": 2.37, "unit": "µM"}, {"measurement": "IC50", "setting": "U937; U937, 72 hour treatment", "result": 4.77, "unit": "µM"}, {"measurement": "differentiation induction", "setting": "[1]", "result": "did not induce significant differentiation"}, {"measurement": "IC50", "setting": "[2]", "result": "> 100", "unit": "µM"}, {"measurement": "IC50", "setting": "[3]", "result": "12.6 ± 2.35", "unit": "µM"}, {"measurement": "activity reduced by addition of dipyridamole", "setting": "[4]; Hela, with vs without dipyridamole", "result": 3, "unit": "fold"}, {"measurement": "IC50", "setting": "[4]; Hela with dipyridamole (10 μM)", "result": 12.8, "unit": "µM"}, {"measurement": "IC50", "setting": "[4]; without dipyridamole", "result": 4.32, "unit": "µM"}, {"measurement": "LPS stimulated NFκB luciferase activity", "setting": "NFκB", "result": "further increased the LPS induced NFκB activation"}, {"measurement": "average terminal half-life", "setting": "[5]", "result": "1.50 ± 2.30", "unit": "h"}]}
